ChEMBL document CHEMBL4433201, “Progress in the development of selective heme oxygenase-1 inhibitors and their potential therapeutic application” (Eur J Med Chem, 2019)

How the values were obtained:
Heme oxygenase 2 [1] = biological target: T1, Heme oxygenase 2 (Homo sapiens, UniProt P30519); test: Inhibition of HO-2 (unknown origin)
T1 sequence (P30519 whole entry): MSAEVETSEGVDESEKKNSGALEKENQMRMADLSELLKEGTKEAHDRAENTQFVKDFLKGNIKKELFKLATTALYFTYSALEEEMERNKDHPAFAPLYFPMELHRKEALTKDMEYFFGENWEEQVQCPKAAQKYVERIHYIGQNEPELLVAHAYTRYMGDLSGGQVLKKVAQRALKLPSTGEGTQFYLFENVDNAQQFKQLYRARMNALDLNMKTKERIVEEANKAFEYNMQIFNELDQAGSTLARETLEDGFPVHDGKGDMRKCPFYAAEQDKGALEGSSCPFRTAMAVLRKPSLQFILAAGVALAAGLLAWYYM

Heme oxygenase 1 [2] = biological target: T2, Heme oxygenase 1 (Rattus norvegicus, UniProt P06762); test: Inhibition of HO-1 in Sprague-Dawley rat spleen microsomes using NADPH as substrate incubated for 60 mins by spectrometry based assay
T2 sequence (P06762 whole entry): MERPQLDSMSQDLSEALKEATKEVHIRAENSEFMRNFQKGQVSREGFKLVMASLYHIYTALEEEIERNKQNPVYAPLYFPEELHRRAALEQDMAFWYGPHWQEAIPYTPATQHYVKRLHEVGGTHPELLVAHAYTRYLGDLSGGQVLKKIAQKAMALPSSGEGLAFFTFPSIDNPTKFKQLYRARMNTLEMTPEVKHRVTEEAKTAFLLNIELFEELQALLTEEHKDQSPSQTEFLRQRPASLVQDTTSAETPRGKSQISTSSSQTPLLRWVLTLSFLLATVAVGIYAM

Heme oxygenase 1 [3] = biological target: T3, Heme oxygenase 1 (Homo sapiens, UniProt P09601); test: Inhibition of human recombinant HO-1 by spectrometry based assay
T3 sequence (P09601 whole entry): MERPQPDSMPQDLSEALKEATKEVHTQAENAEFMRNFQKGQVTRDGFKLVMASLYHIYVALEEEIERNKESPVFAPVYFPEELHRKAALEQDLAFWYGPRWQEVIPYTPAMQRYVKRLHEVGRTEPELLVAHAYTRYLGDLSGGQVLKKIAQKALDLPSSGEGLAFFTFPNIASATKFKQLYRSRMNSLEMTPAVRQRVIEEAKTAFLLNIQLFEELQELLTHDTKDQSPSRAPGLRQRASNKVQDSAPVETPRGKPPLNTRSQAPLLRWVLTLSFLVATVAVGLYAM

[4] = Growth inhibition of […] B16 cells incubated for 72 hrs by sulforhodamine B assay; type: functional; conditions: B16, 72 h
Heme oxygenase 1 [5] = biological target: T2, Heme oxygenase 1; test: Inhibition of HO-1 in Sprague-Dawley rat spleen microsomes using NADPH as substrate preincubated for 10 mins followed by substrate addition and measured after 15 mins by GC analysis
Heme oxygenase 2 [6] = biological target: T4, Heme oxygenase 2 (Rattus norvegicus, UniProt P23711); test: Inhibition of HO-2 in Sprague-Dawley rat brain microsomes using NADPH as substrate preincubated for 10 mins followed by substrate addition and measured after 15 mins by GC analysis
T4 sequence (P23711 whole entry): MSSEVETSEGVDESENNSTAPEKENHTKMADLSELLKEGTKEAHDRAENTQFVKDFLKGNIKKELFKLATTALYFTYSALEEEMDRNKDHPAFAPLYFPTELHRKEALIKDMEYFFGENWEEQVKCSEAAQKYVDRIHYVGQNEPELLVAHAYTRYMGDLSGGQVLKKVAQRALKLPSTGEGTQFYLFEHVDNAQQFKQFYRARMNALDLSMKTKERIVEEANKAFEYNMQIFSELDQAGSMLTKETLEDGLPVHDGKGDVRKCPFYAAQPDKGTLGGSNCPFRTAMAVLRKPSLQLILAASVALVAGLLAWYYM

| IC50 (Heme oxygenase 1 [5]) | IC50 (Heme oxygenase 2 [6]) | SMILES | other results |
| --- | --- | --- | --- |
| – | – | O=C(Cn1ccnc1)C12CC3CC(CC(C3)C1)C2 | IC50 (Heme oxygenase 2 [1]): > 100 µM |
| – | – | O=[N+]([O-])c1ccc(C(O)Cn2ccnc2)cc1 (stereo not given) | IC50 (Heme oxygenase 1 [2]): 10 µM |
| – | – | O=C(Cn1ccnc1)c1ccc(Br)cc1 | IC50 (Heme oxygenase 1 [2]): 2.5 µM |
| – | – | c1ccc(OCCn2ccnc2)cc1 | IC50 (Heme oxygenase 1 [2]): 28 µM |
| – | – | OC(Cn1ccnc1)c1ccc(-c2ccc(Br)cc2)cc1 (stereo not given) | IC50 (Heme oxygenase 1 [3]): 0.06 µM |
| – | – | OC(Cn1ccnc1)c1cccc(Br)c1 (stereo not given) | IC50 [4]: 37 µM |
| – | – | FC(F)(F)c1ccc(COc2ccc(CCn3ccnc3)cc2)cc1 | IC50 (Heme oxygenase 1 [3]): 54 µM |
| > 100 µM | 30.1 µM | Brc1ccc(Cn2c(CN3CCOCC3)nc3ccccc32)cc1 | – |
| > 100 µM | 5.4 µM | Brc1ccc(Cn2c(CC3CCCCC3)nc3ccccc32)cc1 | – |
| > 100 µM | 4.3 µM | Clc1ccc(Cn2c(CC3CC4CCC3C4)nc3ccccc32)cc1 (stereo not given) | – |
| – | – | Brc1ccc(CCCCn2ccnc2)cc1 | IC50 (Heme oxygenase 1 [3]): 0.25 µM |
| > 100 µM | 5.4 µM | Clc1ccc(Cn2c(CC3CCCCC3)nc3ccccc32)cc1 | – |
| 2.7 µM | 4.2 µM | Brc1ccc(Cn2c(Cn3ccnc3)nc3ccccc32)cc1 | – |
| 32.4 µM | 3.3 µM | Clc1ccc(Cn2c(CC3CCCC3)nc3ccccc32)cc1 | – |
| – | – | c1ccc(COc2ccc(CCn3ccnc3)cc2)cc1 | IC50 (Heme oxygenase 1 [3]): 0.9 µM |
| > 100 µM | 31.9 µM | Clc1ccc(Cn2c(CN3CCOCC3)nc3ccccc32)cc1 | – |
| > 100 µM | 5.1 µM | Brc1ccc(Cn2c(CC3CC4CCC3C4)nc3ccccc32)cc1 (stereo not given) | – |
| – | – | COc1ccc2[nH]c(=O)c(-c3nc(-c4ccccc4)c(-c4ccccc4)[nH]3)cc2c1 | IC50 (Heme oxygenase 1 [2]): 9.2 µM |
| – | – | Brc1cccc(OCCCCn2ccnc2)c1 | IC50 (Heme oxygenase 2 [1]): 2.2 µM |
| – | – | Brc1ccc(OCCCCCCn2ccnc2)cc1 | IC50 (Heme oxygenase 1 [2]): 10 µM |
| – | – | Brc1ccc(CCC2(Cn3ccnc3)OCCO2)cc1 | IC50 (Heme oxygenase 2 [1]): > 100 µM; IC50 (Heme oxygenase 1 [3]): 1.9 µM |
